Experimental data reported in patent US12630573B2, “High-affinity Cu(I) ligands and methods of use thereof” (GEORGIA TECH RESEARCH CORPORATION, priority 2019, dated 2026).

Tests used:
Assay type in all cases: binding
[1] = Molar ratio titration against BCA copper(I) complex; details: linear decrease in absorbance at 562 nm
Description: In a quartz cuvette with 1 cm path length, BCA (9.0 μL) was diluted from a 50 mM aqueous stock solution (dissolved by addition of KOH) into 3.0 mL of buffer (10 mM PIPES, 0.1 M KCl, pH 7.0, 25° C.). Furthermore, Cu(II)SO4 (5.0 μL) from a 30 mM stock solution) and sodium ascorbate (7.5 μL from a 60 mM stock solution) were added. After equilibration for 10 minutes, a UV-vis spectrum was recorded, and the solution was titrated in 1-10 μL aliquots with a 3 mM stock solution of phenPS in DMF or naphPS in DMSO. For phenPS, the endpoint occurred at 1.04 molar equivalents on the basis of the mass employed for stock solution preparation, consistent with incomplete removal of the solvent of crystallization as observed by ^1H NMR. An independent molar ratio titration against [Cu(I)MCL-2]PF6 confirmed the stock concentration as 2.88 mM rather than 3.0 mM, and the plotted Cu(I)/phenPS ratio is adjusted accordingly.

[2] = Molar ratio titration with [Cu(I)MCL-2]PF6; details: 10 mM PIPES, 0.1 M KCl, pH 7; fit 250-400 nm
Description: In a quartz cuvette with 1 cm path-length, a 50 μM aqueous solution of phenPS was prepared by diluting the ligand from a stock solution (3 mM in DMF) into 2.95 mL of aqueous buffer (10 mM PIPES, 0.1 M KCl, pH 7) under rapid stirring. After recording a UV-vis absorption spectrum from 240 to 500 nm, [Cu(I)MCL-2]PF6 (3 mM stock solution in water) was added in 5 μM aliquots up to 95 μM. The absorption spectrum was recorded after a 1 min mixing period following each aliquot. To derive an accurate reference spectrum of Cu(I)-MCL-2 complex, a separate titration was conducted using pure DMF in place of the phenPS stock solution. The exact concentration of the phenPS stock solution was calibrated against [Cu(I)MCL-2]PF6 by plotting the apparent fractional saturation of the ligand, calculated as f=(A−A0)/(Asat−A0) where A corresponds to the absorbance at 290 nm and the subscripts 0 and sat refer to the spectra at 0 and 50 μM Cu(I), versus nominal molar equivalents of Cu(I) for the first 10 data points (0-0.9 molar equivalents). After concentration correction and subtraction of the DMF background absorption, non-linear least-squares fitting of the titration dataset over the wavelength range 250-400 nm was performed using a fixed log β11 of 21.2 for Cu(I)-phenPS to yield a log β12=31.86±0.07 (log K2=10.66±0.07) for Cu(I)2phenPS.

[3] = Spectrophotometric Cu(I) competition titration against BCS; details: pH 7.0, 10 mM PIPES, 0.1 M KCl, 25° C.
Description: An aqueous sodium bathocuproine disulfonate (BCS, Acros Organics) stock solution (60 mM) was prepared calibrated by competition titration against MCL-1 as previously described (Bagchi, P., et al., J. Am. Chem. Soc., 135(49) (2013)). BCS (1.50 mM), sodium ascorbate (150 μM) and CuSO4 (30 μM) were sequentially added via aqueous stock solutions to 3 mL of buffer (10 mM PIPES, 0.1 M KCl, pH 7.0) in a 1-cm path length cuvette equipped with magnetic stirring, and a UV-Vis absorption spectrum was recorded from 650-380 nm. PhenPS was added in 5 μM aliquots from a 2.88 mM stock solution in DMF and an absorption spectrum was acquired after a 2 min equilibration period following each aliquot. The titration was conducted in duplicate, and each dataset was analyzed by nonlinear least squares fitting over the spectral range from 650-400 nm using the Specfit software package from Spectrum Software Associates. The stability constant for naphPS was determined similarly except that the ligand was delivered from a 3.0 mM stock solution in DMSO and a 5-minute equilibration period was required to obtain a stable spectrum after each aliquot.
An aqueous sodium bathocuproine disulfonate (BCS, Acros Organics) stock solution (60 mM) was prepared and calibrated by competition titration against MCL-1 as previously described (Bagchi, P., et al., J. Am. Chem. Soc., 135(49) (2013)). […]

| Structure (SMILES) | removal of Cu(I) from BCA complex [1] | log β12 for Cu(I)2phenPS [2] | dissociation constant Kd of Cu(I) complex [3] [zM] |
| --- | --- | --- | --- |
| CP(C)(=S)CP(CP(C)(C)=S)c1cccc2cccc(P(CP(C)(C)=S)CP(C)(C)=S)c12 [naphPS, 1,8-Bis(bis(dimethylphosphorothioylmethyl)phosphino)naphthalene] | quantitative removal of Cu(I) |  |  |
| CP(C)(=S)CP(CP(C)(C)=S)c1ccccc1P(CP(C)(C)=S)CP(C)(C)=S [phenPS, 1,2-Bis(bis(dimethylphosphorothioylmethyl)phosphino)benzene] | quantitative removal of Cu(I) | 31.86±0.07 | 0.6 |
